{"source": "patent US7056509B2", "about": "(Board of Regents The University of Texas System, priority 1999, dated 2006)", "key": {"[1]": {"conditions": "patients having progressive disease before treatment; cited from earlier work"}, "[2]": {"tested_on": "VEGFR2 (KDR/Fc)", "experiment": "Coprecipitation assay, VEGF with VEGFR2/Fc in solution", "format": "binding", "conditions": "40 ng VEGF, 200 ng receptor/Fc, F(ab′)2 of antibody", "experimental": "200 ng of soluble forms of VEGFR1 (Flt-1/Fc) or VEGFR2 (KDR/Fc, R&D Systems, Minneapolis, Minn.) were added for a total volume of 50 μl and incubated for 2 hrs. The receptor/Fc constructs were precipitated using Protein A-sepharose beads and the resulting precipitate was washed 4 times with binding buffer.\nReducing sample buffer was added to the pellet and supernatant of each reaction and both were analyzed by 12% SDS-PAGE and transferred to PVDF membranes. […] The soluble receptor/Fc constructs were also detected by using peroxidase-conjugated goat anti-human Fc (Kirkegaard & Perry Laboratories, Inc.)\nThe receptor/Fc constructs were precipitated by incubation with Protein A sepharose beads. The precipitate was washed and resuspended in reducing sample buffer and separated by 12% SDS-PAGE and transferred to PVDF."}, "[3]": {"tested_on": "ABAE cells", "experiment": "Endothelial cell growth assay (VEGF-mediated growth, MTS)", "format": "cell-based, bovine", "method": "Adult bovine aortic endothelial (ABAE) cells were plated into 96-well tissue culture plates at 1500 cells/well and grown in the presence of 0.5 nM human VEGF with the addition of the various sample and control antibodies. Control wells received media with or without VEGF.\nAfter 4 days of incubation, the cells were quantified by an MTS (3-(4,5-dimethylthiazol-2-yl)-5-(3-carboxylmethoxyphenyl)-2-(4-sulfophenyl)-2H-tetrazolium, inner salt) conversion assay, where MTS conversion to a formazan is proportional to cell number and can be followed by absorbance at 490 nm (Cell Titer 96 AQueous One Solution Cell Proliferation Assay, Promega, Madison, Wis.). The assay was performed according to the manufacturer's instructions.\nCell growth was estimated by subtracting the MTS conversion in cultures to which VEGF was not added. Results were expressed as a percentage of the MTS conversion in control cultures to which only VEGF was added (Buttke et al., 1993)."}, "[4]": {"target": "T1, VEGF (Homo sapiens, UniProt P15692)", "T1 sequence (P15692 27-191 isoform P15692-4)": "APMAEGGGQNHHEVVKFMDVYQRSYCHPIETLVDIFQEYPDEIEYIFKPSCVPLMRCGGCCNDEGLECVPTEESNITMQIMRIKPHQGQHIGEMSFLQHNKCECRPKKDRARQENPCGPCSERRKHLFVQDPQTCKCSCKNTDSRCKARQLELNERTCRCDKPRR", "experiment": "Competition ELISA (epitope groups, cross-blocking)", "format": "binding", "conditions": "ELISA cross-blocking studies of 2C3 with A4.6.1", "experimental": "Competition ELISA studies were performed by first labeling the antibodies with peroxidase according to the manufacturer's instructions (EZ-Link Activated Peroxidase, Pierce). […] Approximately 0.5–2.0 μg/ml of peroxidase labeled test antibody was incubated on the plate in the presence of either buffer alone, an irrelevant IgG, or the other anti-VEGF competing antibodies in a 10–100 fold excess.\nThe assay was done in triplicate at least twice for each combination of labeled and competitor antibody. Two antibodies were considered to be in the same epitope group if they cross-blocked each other's binding by greater than 80%."}, "[5]": {"tested_on": "A673 rhabdomyosarcoma", "experiment": "In vivo tumor growth inhibition, newly-implanted A673", "parameters": "species or system mouse", "experimental": "(§1) Nu/nu mice were injected subcutaneously with either 1×10^7 NCI-H358 NSCLC cells or 5×10^6 A673 rhabdomyosarcoma cells on day 0. […] The tumors were then measured twice per wk for a period of approximately six wk for the NCI-H358 bearing mice and four wk for the A673 bearing mice. Tumor volume was calculated according to the formula: volume=L×W×H, where L=length, W=width, H=height."}, "[6]": {"tested_on": "A673 rhabdomyosarcoma", "experiment": "Treatment of mice with established A673 tumors", "format": "in vivo, mouse"}, "[7]": {"target": "T2, VEGF and VEGF:Flk-1 (Homo sapiens, UniProt P15692)", "T2 sequence (P15692 27-191 isoform P15692-4)": "T1 sequence (P15692 27-191 isoform P15692-4)", "experiment": "Indirect and capture ELISA for reactivity with VEGF alone or VEGF associated with sFlk-1", "format": "binding", "conditions": "VEGF alone or VEGF associated with sFlk-1 (VEGF:Flk-1)", "experimental": "The Flk-1/SEAP protein was produced and purified as described by Tessler et al. (1994). Basically, the extracellular domain of Flk-1 (sFlk-1) was produced in Spodoptera frugiperda (Sf9) cells and purified by immunoaffinity techniques utilizing a monoclonal anti-Flk-1 antibody (1A8). sFlk-1 was then biotinylated and bound on avidin-coated plates.\nThe reactivity was determined as described above for the initial screening.\nA capture ELISA was also developed. In the capture ELISA, microtiter plates were-coated overnight at 4° C. with 100 ng of the indicated antibody. […] Streptavidin conjugated to peroxidase (Kirkegaard & Perry Laboratories, Inc.), diluted 1:2000, was used as a second layer and developed."}, "[8]": {"tested_on": "NCI-H358 NSCLC", "experiment": "In vivo tumor growth inhibition, newly-implanted NCI-H358", "parameters": "species or system mouse", "experimental": "as §1"}, "[9]": {"tested_on": "NCI-H358 NSCLC tumors", "experiment": "In vivo tumor therapy, established NCI-H358 xenografts", "parameters": "species or system mouse", "experimental": "(§2) Male nu/nu mice bearing subcutaneous NCI-H358 tumors or HT1080 fibrosarcoma 200–400 mm^3 in size were injected i.p. with test or control antibodies. The NCI-H358 bearing mice were treated with 100 μg of antibodies per injection three times a week during the first week and twice a week during the second and third week. The mice were then switched to 50 μg per injection every five days. The HT1080 bearing mice were treated with 100 μg of the indicated antibody or saline every other day throughout the duration of the study. In both studies, mice were sacrificed when their tumors reached 2500 mm^3 in size or earlier if tumors began to ulcerate.\nDoses were 50–100 μg every 3–5 days. […] In addition to measuring mean tumor volume (FIG. 4), photographs of the mice from each treatment group were also taken to show the differences in tumor size and appearance at the end of the study."}, "[10]": {"tested_on": "NCI-H358 NSCLC and HT29 colon adenocarcinoma xenografts", "experiment": "In vivo localization to human tumor xenografts in tumor-bearing mice", "parameters": "species or system mouse", "conditions": "i.v. 24 hours prior to sacrifice; 3E7 and GV39M bound tumor vascular endothelium, 2C3 tumor stroma", "method": "Tumors were grown subcutaneously in immunocompromised mice (NCI-H358 NSCLC in nu/nu mice and HT29 colon adenocarcinoma in SCID mice) until the tumor volume was approximately 1 cm^3. 100 μg of unlabeled antibody for studies using SCID mice, or 100 μg of biotinylated antibody for studies using nude mice, was injected intravenously via a tail vein. Twenty four hours later, the mice were anesthetized, perfused with PBS, and tumor and organs including heart, lungs, liver, kidneys, intestines and spleen were collected and snap frozen in liquid nitrogen.\nThe tumor and organs from each mouse were sectioned on a cryostat and stained for antibody immunohistochemically as above, with the exception that sections from the nude mice were developed using peroxidase labeled streptavidin-biotin complex (Dako, Carpinteria, Calif.) and the sections from the SCID mice were developed using two peroxidase-conjugated secondary antibodies, a goat anti-mouse IgG+IgM followed by a rabbit anti-goat IgG.\n100 μg of GV39M and 3E7 or isotype-matched control IgG were injected into SCID mice bearing HT29 human colonic adenocarcinomas. Twenty-four hours later, the mice were sacrificed, exsanguinated and the tumors and tissues were removed."}, "[11]": {"tested_on": "VEGFR2 in PAE/KDR cells", "experiment": "VEGF-induced phosphorylation of VEGFR2 (immunoprecipitation and western blot)", "format": "cell-based, porcine", "conditions": "antibody at 100 nM, 15 min", "experimental": "PAE/KDR, PAE/FLT, and bEND.3 cells were grown to 80–90% confluency in 100 mm tissue dishes in media containing 5% serum. The cells were then serum starved for 24 hours in media containing 0.1% serum. After pretreatment with […] in PBS for 30 min, the cells were incubated with 5 nM (200 ng/ml) VEGF165, 5 nM (100 ng/ml) bFGF (R&D Systems, Minneapolis, Minn.), or A673 tumor conditioned media in the presence or absence of control or test antibodies for additional 15 min.\nThe cells were then washed with ice-cold PBS containing 10 mM EDTA, 2 mM sodium fluoride, and 2 mM sodium orthovanadate and lysed in lysis buffer (50 mM Tris, 150 mM NaCl, 1% Nonidet P-40, 0.25% sodium deoxycholate, 0.1% CHAPS, 5 mM EDTA, 1.5 mM MgCl2, 2 mM sodium fluoride, 2 mM sodium orthovanadate, 10% glycerol and protease inhibitors (Complete Protease Inhibitor Cocktail tablets, Boehringer Mannheim)). The lysates were clarified by centrifugation and resulting supernatant used for immunoprecipitation.\nThe reactions using the chicken anti-FLT-1 antibody were subsequently incubated with a bridging goat anti-chicken antibody (Kirkegaard and Perry Laboratories, Inc.) for 1 h at 4° C. […]"}, "[12]": {"tested_on": "HT1080 fibrosarcoma", "experiment": "In vivo tumor therapy, established HT1080 xenografts", "parameters": "species or system mouse", "conditions": "100 μg i.p. every other day", "experimental": "as §2"}, "[13]": {"tested_on": "LS174T colon adenocarcinoma", "experiment": "LS174T tumor model in mice", "format": "in vivo, mouse", "conditions": "mice with established tumors"}, "[14]": {"tested_on": "VEGFR2 (KDR/Flk-1)", "experiment": "ELISA of VEGF binding to VEGFR2-coated wells in presence of antibody", "parameters": "species or system mouse", "conditions": "1000-fold molar excess of antibody over VEGF (1 nM)"}, "[15]": {"tested_on": "human NCI-H358 NSCLC tumors", "experiment": "Localization of 2C3-GUS in SCID mice bearing NCI-H358 tumors", "format": "in vivo, mouse"}, "[16]": {"experiment": "Blood clearance of radioiodinated 2C3-GUS in mice", "format": "in vivo, mouse", "conditions": "after intravenous injection into mice, 125I-labelled", "excerpt": "2C3-GUS was radioiodinated with ^125I to a specific activity of 5×10^6 cpm/μg."}, "[17]": {"conditions": "100 μg i.p. 2 times per wk from day 1, nu/nu mice"}}, "data": [{"compound": "NC(=O)c1nnn(Cc2cc(Cl)c(C(=O)c3ccc(Cl)cc3)c(Cl)c2)c1N", "note": "[CAI, carboxyamidotriazole]", "values": [{"measurement": "Cancer patients with disease stabilization", "setting": "[1]", "value": 49, "unit": "%"}]}, {"compound": "2C3 F(ab′)2: F(ab′)2 of 2C3", "values": [{"measurement": "Blocking of VEGF binding to VEGFR2/Fc in solution", "setting": "[2]", "value": "blocked the binding of VEGF to VEGFR2/Fc"}]}, {"compound": "2C3: monoclonal anti-VEGF antibody, IgG2a k, hybridoma ATCC PTA 1595; blocks VEGF binding to VEGFR2 but not VEGFR1", "values": [{"measurement": "Blocks VEGF-induced proliferation", "setting": "[3]", "value": "Yes"}, {"measurement": "Epitope on VEGF", "setting": "[4]", "value": "not cross-reactive"}, {"measurement": "Final tumor volume", "setting": "[5]; [17]", "value": "approximately 150 mm^3"}, {"measurement": "Effect on growth of A673 tumors", "setting": "[5]; 10 or 1 μg twice per wk, compared to untreated mice", "value": "did slow the growth of A673 tumors"}, {"measurement": "Growth of established tumors", "setting": "[6]", "value": "significantly slowed the growth"}, {"measurement": "Predominant Reactivity", "setting": "[7]", "value": "VEGF"}, {"measurement": "Tumor growth retardation", "setting": "[8]; 10 μg dose twice per wk", "value": "less marked"}, {"measurement": "Final tumor volume", "setting": "[8]; [17]", "value": "approximately 150 mm^3"}, {"measurement": "Mean tumor volume after approximately 14 wk of treatment", "setting": "[9]; 100 μg i.p., prolonged treatment (FIG. 5A)", "value": 84, "unit": "mm^3"}, {"measurement": "Mean tumor volume at the end of the study, % of initial mean tumor volume", "setting": "[9]; 50–100 μg i.p. every 3–5 days, approximately 10 weeks of treatment", "value": 30, "unit": "%"}, {"measurement": "Mean tumor weight", "setting": "[9]; end of the study (day 116), FIG. 5A", "value": 0.054, "unit": "g"}, {"measurement": "Decrease in mean tumor volume", "setting": "[9]; start to approximately 14 wk of treatment (FIG. 5A)", "value": "approximately 80%"}, {"measurement": "Immunohistochemical Reactivity Tumor", "setting": "[10]", "value": "3+"}, {"measurement": "Blocking of VEGF-induced phosphorylation of VEGFR2", "setting": "[11]", "value": "block VEGF-induced phosphorylation of VEGFR2"}, {"measurement": "Tumor growth", "setting": "[12]", "value": "arrested the growth of the tumors"}, {"measurement": "Growth of established tumors", "setting": "[13]", "value": "significantly slowed the growth"}, {"measurement": "VEGF bound to VEGFR2-coated wells, % of amount bound in absence of antibody", "setting": "[14]", "value": "~19", "unit": "%"}]}, {"compound": "2C3-GUS", "values": [{"measurement": "Localization after i.v. injection", "setting": "[15]; immunohistochemistry on frozen sections of tumors", "value": "specifically localized to tumor vasculature and surrounding tumor stroma"}, {"measurement": "Time of maximal localization after injection", "setting": "[15]; mouse, in vivo", "value": "24 to 48", "unit": "h"}, {"measurement": "Staining of normal tissues", "setting": "[15]; mouse, in vivo, iv", "value": "unstained"}, {"measurement": "t½ α", "setting": "[16]", "value": "about 6 hours"}, {"measurement": "t½ β", "setting": "[16]", "value": "about 25 hours"}]}]}
